Measurements taken from publication PMC7200681, “The calcitonin-like system is an ancient regulatory system of biomineralization” (Scientific Reports, 2020).

Key:
Design in all cases: species or system Mytilus galloprovincialis
[1] = test system: mussel mantle edge; assay: Ex-vivo incubation of mantle edge fragments, calcium quantification by MP-AES; details: 4 h at 19-20 °C; CALCIIa 10 μM or ouabain 2 mM alone; MP-AES at 393.366 nm; mean ± SEM; control 400.67 ±13.83 ppm; SEM
Method: Figure 7 Effect of the mussel calcitonin-like peptide on (A) calcium (ppm) concentration in the mantle edge and (B) calcium uptake by mantle cells of the Mediterranean mussel. (A) The quantity of calcium (ppm) present in the mantle edge after mussel CALCIIa peptide incubation was measured using a Microwave Plasma-Atomic Emission Spectrometer (MP-AES, Agilent) at 393.366 nm. A standard curve for calcium was performed before analysing the samples. In vitro mantle assays with CALCIIa peptide and with ouabain and control (culture medium and mantle) were repeated on at least 3 independent occasions. For each assay at least ten replicates were performed and the mantle edge distal to the umbo was used (one mantle fragment per replica). Prism GraphPad v5 software was used to assess the significance of differences between the groups using a One-way Anova and Tukey’s multiple comparison test. […] C - control (no peptide or ouabain); P - peptide (10 μM); O - ouabain (2 mM), OP - ouabain (2 mM) and peptide (10 μM); PreOP - pre -stimulation for 1 hour with the peptide followed by 4 hours incubation with OP. (B) Digital photographs of the mussel mantle cells in the presence (CALCIIa, 10 μM) or absence (control) of the mussel CALCIIa peptide. Calcium ions were stained with 50 mM of Calcein (green) and cell nuclei (blue) with DAPI (Acros Organics). An increase in cellular fluorescence represents an increase in calcium uptake. Fluorescence of the CALCIIa peptide stimulated cells was 1.9 times higher than the control. The average mantle cell size was 3–4 μm and fluorescent images were taken using a Leica DM IL microscope coupled to a Visicam HDMI 6 digital camera and photographs were analysed using ImageJ software (v. 1.52a) to calculate the fluorescence intensity and for image overlay. The scale bar is indicated.
The posterior mantle edge region of the Mediterranean mussel was collected and washed in culture medium. The composition of the culture medium was as described in[91] […]

[2] = test system: alpha-carbonic anhydrase (CA) esterase activity in mussel mantle edge; assay: Esterase (carbonic anhydrase) activity in mantle after ex-vivo incubation; details: after exposure to CALCIIa 10 μM or ouabain 2 mM; 4-Nitrophenyl acetate substrate; n = 6
Method: (§1) (A) Esterase activity and (B) Acid phosphatase activity. Enzyme activity was quantified in protein extracts from the mantle of control or challenged samples that were incubated with the mussel CALCIIa peptide. Values represent the mean ± SEM (CA, n = 6 and TRAP, n = 10) performed in duplicate. Prism GraphPad v5 software was used to assess the significance of the differences between the groups using One-way Anova and Tukey’s multiple comparison test. […] C - control; P - peptide (10 μM); O - ouabain (2 mM), OP - ouabain (2 mM) and peptide (10 μM); PreOP - pre stimulation for 1 hour with the peptide and 4 hours incubation with OP.
(§2) The posterior mantle edge region of the Mediterranean mussel was collected and washed in culture medium. The composition of the culture medium was as described in[91] […] The culture medium was supplemented with heat inactivated 2% FBS (SIGMA-ALDRICH), 0.1% penicillin: streptomycin antibiotic mix (10.000 U:10 mg/ml, SIGMA-ALDRICH) and 250 μg/ml sterile filtered 1:100 amphotericin B solution (Sigma-Aldrich). The posterior mantle edge from mussels was collected into culture medium and cut into fragments of approximately 1–2 mm in length. […]
Esterase activity in the mussel posterior mantle edge (n = 6/experimental group) was quantified using a colorimetric assay that measures the conversion of the substrate 4-Nitrophenyl acetate to p-nitrophenolate[92]. […]

[3] = test system: acid phosphatase (AP) activity in mussel mantle edge; assay: Acid phosphatase (TRAP) activity in mantle after ex-vivo incubation; details: after exposure to CALCIIa 10 μM or ouabain 2 mM; TRAP assay, pNPP, pH 5.3; p < 0.05
Method: as §1, §2
Acid phosphatase activity of the mantle protein extracts (n = 6/ group) was determined using 96 well-plates (GREINER, Germany) and a tartrate resistant acid phosphatase (TRAP) assay as described in[93].

## C[C@@H]1O[C@@H](O[C@H]2C[C@@H](O)[C@]3(CO)[C@H]4[C@H](O)C[C@]5(C)[C@@H](C6=CC(=O)OC6)CC[C@]5(O)[C@@H]4CC[C@]3(O)C2)[C@H](O)[C@H](O)[C@H]1O [Ouabain, ouabain]
[1]
  Calcium in the mantle edge after incubation: 588.71 ± 42.92 ppm
[2]
  CA esterase activity in mantle edge (in words): neither of the bivalve CALCs or ouabain modified
[3]
  Acid phosphatase (AP) activity in mantle edge compared to control (in words): significantly decreased
